The text below walks through data of ChEMBL document CHEMBL4806968, “Hipk inhibitors and methods of use thereof” (2020).

Experiment [1] concerns the target Tyrosine-protein kinase receptor UFO (Homo sapiens) (UniProt P30530). The experiment in a line: Inhibition of AXL (unknown origin) at 0.5 uM relative to control.
In experiment [2] the target is Platelet-derived growth factor receptor beta (Homo sapiens) (UniProt P09619). The experiment in a line: Inhibition of PDGFR-beta (unknown origin) at 0.5 uM relative to control.
The target of experiment [3] is Ephrin type-A receptor 4 (Homo sapiens) (UniProt P54764). The experiment in a line: Inhibition of EPHA4 (unknown origin) at 0.5 uM relative to control.
The target of experiment [4] is Mitogen-activated protein kinase 14 (Homo sapiens) (UniProt Q16539). The experiment in a line: Inhibition of p38alpha (unknown origin) at 0.5 uM relative to control.
Sequence of Mitogen-activated protein kinase 14 (Homo sapiens) (Q16539 whole entry): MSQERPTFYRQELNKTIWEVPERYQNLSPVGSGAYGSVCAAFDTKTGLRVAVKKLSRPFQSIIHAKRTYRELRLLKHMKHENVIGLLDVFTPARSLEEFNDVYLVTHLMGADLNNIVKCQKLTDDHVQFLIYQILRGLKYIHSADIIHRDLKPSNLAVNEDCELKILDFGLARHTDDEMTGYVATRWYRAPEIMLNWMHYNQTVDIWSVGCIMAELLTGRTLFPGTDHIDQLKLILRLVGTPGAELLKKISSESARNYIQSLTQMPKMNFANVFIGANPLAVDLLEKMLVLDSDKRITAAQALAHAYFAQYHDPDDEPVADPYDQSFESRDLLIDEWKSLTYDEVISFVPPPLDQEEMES
The target in experiment [5] is T1, Serine/threonine-protein kinase TAO3 (Homo sapiens) (UniProt Q9H2K8).
T1 sequence (whole entry): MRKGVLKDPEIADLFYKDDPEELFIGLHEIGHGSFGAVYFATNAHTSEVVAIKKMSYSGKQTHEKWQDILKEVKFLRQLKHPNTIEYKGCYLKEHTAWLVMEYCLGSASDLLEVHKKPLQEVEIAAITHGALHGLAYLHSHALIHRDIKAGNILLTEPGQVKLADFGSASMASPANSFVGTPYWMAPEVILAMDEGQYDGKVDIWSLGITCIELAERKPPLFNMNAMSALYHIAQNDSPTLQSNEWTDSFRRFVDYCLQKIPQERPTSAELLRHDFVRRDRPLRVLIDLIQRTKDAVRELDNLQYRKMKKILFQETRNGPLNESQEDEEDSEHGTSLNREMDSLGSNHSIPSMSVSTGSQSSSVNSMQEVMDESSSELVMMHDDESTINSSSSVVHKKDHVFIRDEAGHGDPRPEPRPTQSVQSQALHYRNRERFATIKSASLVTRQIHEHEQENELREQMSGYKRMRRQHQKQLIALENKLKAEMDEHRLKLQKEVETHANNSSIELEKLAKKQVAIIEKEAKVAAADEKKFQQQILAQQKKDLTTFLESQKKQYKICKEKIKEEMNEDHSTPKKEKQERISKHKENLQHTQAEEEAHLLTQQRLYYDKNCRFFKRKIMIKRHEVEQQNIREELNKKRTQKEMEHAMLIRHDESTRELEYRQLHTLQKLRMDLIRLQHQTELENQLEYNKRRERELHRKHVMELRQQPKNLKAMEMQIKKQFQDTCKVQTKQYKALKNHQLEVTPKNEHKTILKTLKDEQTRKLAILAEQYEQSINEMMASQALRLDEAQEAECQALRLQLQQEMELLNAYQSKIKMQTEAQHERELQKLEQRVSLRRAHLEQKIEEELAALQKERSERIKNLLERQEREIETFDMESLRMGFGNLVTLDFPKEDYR
The experiment in a line: Inhibition of TAOK3 (unknown origin) at 0.5 uM relative to control.

Experiment [6] has as its target Angiopoietin-1 receptor (Homo sapiens) (UniProt Q02763). Kind of experiment: Inhibition of TIE2 (unknown origin) at 0.5 uM relative to control.
In experiment [7] the target is Ephrin type-A receptor 5 (Homo sapiens) (UniProt P54756). Kind of experiment: Inhibition of EPH-A5 (unknown origin) at 0.5 uM relative to control.
Sequence of Ephrin type-A receptor 5 (Homo sapiens) (P54756 whole entry): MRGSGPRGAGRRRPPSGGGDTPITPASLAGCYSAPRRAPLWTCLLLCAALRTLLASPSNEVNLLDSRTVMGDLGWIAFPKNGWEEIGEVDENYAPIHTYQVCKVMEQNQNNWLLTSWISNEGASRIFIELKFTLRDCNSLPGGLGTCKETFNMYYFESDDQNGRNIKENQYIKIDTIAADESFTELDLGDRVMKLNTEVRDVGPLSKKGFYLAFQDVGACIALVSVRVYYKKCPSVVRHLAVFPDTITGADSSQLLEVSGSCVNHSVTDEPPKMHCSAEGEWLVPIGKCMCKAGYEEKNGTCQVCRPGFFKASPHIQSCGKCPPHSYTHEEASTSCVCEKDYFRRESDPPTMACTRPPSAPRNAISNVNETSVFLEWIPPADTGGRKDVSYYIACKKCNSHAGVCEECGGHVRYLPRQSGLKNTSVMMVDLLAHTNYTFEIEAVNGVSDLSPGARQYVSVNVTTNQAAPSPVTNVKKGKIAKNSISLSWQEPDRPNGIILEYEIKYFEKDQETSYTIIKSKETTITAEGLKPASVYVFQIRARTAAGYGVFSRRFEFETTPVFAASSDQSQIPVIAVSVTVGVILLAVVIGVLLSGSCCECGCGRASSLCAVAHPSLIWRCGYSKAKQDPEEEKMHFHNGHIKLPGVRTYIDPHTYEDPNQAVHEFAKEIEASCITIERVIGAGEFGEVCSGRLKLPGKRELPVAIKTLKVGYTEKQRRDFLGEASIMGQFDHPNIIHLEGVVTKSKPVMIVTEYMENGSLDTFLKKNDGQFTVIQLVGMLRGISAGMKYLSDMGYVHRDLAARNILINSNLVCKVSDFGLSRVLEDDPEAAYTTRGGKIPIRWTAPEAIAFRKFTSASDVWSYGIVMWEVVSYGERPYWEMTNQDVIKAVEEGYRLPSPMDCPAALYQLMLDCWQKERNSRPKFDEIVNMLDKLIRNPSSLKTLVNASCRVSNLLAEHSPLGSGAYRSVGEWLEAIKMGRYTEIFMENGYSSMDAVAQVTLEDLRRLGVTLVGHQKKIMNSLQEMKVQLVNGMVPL
In a further experiment the test system is MDA-MB-231. The experiment in a line: Inhibition of cell migration in human MDA-MB-231 cells. The class given is functional, cell-based.
The target in experiment [8] is Homeodomain-interacting protein kinase 1 (Homo sapiens) (UniProt Q86Z02). Kind of experiment: Inhibition of HIPK1 (unknown origin) assessed as effect on HIPK1 protein level by Western blotting analysis.
For experiment [9], the target named is Homeodomain-interacting protein kinase 2 (Homo sapiens) (UniProt Q9H2X6). Kind of experiment: Inhibition of HIPK2 (unknown origin) assessed as effect on HIPK2 protein level by Western blotting analysis.
Sequence of Homeodomain-interacting protein kinase 2 (Homo sapiens) (Q9H2X6 whole entry, looked up): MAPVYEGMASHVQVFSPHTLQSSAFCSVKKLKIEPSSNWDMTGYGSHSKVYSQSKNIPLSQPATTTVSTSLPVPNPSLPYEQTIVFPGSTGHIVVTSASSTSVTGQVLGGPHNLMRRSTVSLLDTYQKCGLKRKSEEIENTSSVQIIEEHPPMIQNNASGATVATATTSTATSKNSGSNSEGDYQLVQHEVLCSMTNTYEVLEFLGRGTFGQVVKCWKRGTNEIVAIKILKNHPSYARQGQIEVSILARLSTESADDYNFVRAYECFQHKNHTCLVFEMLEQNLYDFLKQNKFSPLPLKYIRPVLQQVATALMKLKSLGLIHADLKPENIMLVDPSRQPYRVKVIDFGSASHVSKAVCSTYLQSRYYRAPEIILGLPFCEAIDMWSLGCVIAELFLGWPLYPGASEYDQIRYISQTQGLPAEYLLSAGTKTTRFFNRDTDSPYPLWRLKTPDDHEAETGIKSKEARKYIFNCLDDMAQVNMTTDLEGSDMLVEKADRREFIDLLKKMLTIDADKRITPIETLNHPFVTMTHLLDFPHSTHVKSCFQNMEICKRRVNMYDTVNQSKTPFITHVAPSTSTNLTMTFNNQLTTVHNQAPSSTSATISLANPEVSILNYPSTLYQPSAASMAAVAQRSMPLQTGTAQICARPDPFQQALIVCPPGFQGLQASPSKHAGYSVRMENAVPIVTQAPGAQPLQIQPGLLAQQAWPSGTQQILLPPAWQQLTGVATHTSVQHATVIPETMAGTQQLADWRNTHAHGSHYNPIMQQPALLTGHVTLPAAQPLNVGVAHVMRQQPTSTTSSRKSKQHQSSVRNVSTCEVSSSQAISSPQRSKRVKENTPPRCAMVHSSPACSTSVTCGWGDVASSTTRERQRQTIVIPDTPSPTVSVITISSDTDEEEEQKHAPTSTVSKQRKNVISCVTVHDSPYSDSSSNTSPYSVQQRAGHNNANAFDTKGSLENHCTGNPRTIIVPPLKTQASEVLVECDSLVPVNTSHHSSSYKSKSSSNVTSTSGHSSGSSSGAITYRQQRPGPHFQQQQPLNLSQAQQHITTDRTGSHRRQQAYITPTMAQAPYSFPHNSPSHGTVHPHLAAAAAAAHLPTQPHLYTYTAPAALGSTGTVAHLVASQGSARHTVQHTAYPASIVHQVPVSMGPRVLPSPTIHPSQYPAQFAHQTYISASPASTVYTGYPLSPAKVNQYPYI
Experiment [10] deals with Homeodomain-interacting protein kinase 3 (Homo sapiens) (UniProt Q9H422). The experiment in a line: Inhibition of HIPK3 (unknown origin) assessed as effect on HIPK3 protein level by Western blotting analysis.
In a further experiment the test system is GILM3. The experiment in a line: Inhibition of cell migration in human GILM3 cells at 1 to 10 uM. The class given is functional, cell-based. The following applies: dose 1-10 µM.
Experiment [11] deals with T2, Ephrin type-A receptor 8 (Homo sapiens) (UniProt P29322).
T2 sequence (whole entry): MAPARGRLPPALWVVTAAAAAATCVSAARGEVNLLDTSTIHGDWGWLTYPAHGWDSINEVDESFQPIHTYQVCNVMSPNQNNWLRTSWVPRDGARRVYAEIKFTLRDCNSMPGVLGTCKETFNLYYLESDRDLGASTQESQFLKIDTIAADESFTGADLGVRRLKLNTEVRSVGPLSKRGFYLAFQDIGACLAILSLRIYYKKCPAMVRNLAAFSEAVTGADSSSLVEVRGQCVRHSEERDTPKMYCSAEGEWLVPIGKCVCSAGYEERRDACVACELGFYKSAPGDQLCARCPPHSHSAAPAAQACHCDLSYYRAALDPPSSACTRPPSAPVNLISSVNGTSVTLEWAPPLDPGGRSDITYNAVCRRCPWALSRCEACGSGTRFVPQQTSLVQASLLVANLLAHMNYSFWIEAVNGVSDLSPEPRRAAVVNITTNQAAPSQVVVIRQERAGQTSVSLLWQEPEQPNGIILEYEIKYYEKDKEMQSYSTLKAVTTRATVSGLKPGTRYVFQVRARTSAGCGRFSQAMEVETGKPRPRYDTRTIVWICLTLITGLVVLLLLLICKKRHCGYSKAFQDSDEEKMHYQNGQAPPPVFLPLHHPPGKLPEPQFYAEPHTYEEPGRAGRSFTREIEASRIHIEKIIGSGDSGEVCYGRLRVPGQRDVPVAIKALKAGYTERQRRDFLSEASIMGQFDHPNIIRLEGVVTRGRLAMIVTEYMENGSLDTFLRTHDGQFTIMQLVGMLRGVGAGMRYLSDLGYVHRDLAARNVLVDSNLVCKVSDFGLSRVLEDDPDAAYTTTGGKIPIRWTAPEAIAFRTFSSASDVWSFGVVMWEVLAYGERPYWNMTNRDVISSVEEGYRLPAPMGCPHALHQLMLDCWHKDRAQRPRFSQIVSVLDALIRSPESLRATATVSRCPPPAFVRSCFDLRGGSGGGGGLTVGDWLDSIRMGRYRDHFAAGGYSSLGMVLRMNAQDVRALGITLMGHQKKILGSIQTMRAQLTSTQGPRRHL
The experiment in a line: Inhibition of EPHA8 (unknown origin) at 0.5 uM relative to control.

Structures are written as SMILES. Activity calls are given as the source filed them. No cut-off for these calls is given here.

Sequence of Tyrosine-protein kinase receptor UFO (Homo sapiens) (P30530 whole entry): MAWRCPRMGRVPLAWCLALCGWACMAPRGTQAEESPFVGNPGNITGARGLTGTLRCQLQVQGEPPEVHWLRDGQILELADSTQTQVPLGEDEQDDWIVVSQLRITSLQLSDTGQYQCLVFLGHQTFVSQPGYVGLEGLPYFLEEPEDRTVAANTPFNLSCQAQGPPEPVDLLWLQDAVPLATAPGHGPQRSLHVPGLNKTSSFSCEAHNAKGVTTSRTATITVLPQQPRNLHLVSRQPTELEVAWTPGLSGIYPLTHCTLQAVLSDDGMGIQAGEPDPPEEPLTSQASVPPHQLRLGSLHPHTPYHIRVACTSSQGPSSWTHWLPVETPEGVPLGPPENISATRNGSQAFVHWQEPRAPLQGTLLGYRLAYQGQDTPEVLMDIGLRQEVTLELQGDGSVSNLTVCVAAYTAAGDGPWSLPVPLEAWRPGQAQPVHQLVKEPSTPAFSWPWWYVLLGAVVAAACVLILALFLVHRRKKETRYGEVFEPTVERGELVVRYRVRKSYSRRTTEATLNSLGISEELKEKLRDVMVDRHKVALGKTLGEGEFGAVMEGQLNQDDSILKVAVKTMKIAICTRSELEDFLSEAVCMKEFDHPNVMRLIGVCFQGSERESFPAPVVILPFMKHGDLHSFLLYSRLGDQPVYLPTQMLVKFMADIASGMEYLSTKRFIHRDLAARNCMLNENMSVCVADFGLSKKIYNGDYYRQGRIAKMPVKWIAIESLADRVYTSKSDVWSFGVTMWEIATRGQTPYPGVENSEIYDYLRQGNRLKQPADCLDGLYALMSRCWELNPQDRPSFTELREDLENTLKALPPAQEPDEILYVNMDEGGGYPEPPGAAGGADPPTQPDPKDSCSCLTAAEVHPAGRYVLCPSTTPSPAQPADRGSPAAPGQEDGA
Sequence of Angiopoietin-1 receptor (Homo sapiens) (Q02763 whole entry): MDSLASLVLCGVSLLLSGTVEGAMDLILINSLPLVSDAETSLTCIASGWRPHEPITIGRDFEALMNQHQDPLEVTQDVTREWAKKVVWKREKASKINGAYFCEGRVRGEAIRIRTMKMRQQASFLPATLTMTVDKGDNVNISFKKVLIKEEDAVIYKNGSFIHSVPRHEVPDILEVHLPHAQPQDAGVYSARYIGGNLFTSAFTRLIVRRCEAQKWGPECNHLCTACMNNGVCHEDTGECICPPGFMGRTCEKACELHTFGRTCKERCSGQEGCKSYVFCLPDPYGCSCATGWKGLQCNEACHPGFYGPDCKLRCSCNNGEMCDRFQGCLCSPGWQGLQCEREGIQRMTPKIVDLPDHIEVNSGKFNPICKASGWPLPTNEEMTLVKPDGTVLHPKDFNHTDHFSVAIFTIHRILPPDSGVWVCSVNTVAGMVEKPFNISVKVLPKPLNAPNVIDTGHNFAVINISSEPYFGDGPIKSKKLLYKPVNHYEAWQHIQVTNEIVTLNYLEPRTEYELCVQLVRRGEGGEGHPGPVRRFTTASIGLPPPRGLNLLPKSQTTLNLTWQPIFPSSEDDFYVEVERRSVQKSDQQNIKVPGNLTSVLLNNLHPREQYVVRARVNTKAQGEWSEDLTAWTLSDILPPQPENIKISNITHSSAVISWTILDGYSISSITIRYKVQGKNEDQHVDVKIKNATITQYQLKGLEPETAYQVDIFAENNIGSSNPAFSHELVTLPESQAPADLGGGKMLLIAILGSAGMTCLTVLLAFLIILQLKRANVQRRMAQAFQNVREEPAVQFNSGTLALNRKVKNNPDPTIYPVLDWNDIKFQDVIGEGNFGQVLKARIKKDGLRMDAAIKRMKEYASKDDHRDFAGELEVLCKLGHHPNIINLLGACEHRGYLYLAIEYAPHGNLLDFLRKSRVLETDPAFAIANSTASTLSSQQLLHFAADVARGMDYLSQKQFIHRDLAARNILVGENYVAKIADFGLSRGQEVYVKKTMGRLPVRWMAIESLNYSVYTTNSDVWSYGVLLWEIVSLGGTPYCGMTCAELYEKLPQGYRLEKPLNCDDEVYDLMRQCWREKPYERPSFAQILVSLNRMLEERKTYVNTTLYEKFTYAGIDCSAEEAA

`CNC(=O)c1cc(Oc2ccc(NC(=O)c3nc(C(F)(F)F)sc3-c3ccc(F)cc3)cc2)ccn1` showed an inhibition in experiment [1] of 52%.

As to `CNC(=O)c1cc(Oc2ccc(NC(=O)c3nc(SC)oc3-c3ccc(F)cc3)cc2F)ccn1`, the inhibition came to 40% in experiment [2], 38% in [3], 63% in [4] and 40% in experiment [5].

Turning to `CNC(=O)c1cc(Oc2ccc(NC(=O)c3nc(NC)sc3-c3ccc(F)cc3)cc2)ccn1`, the inhibition in experiment [6] worked out at 43%; in [2] it was 61%; in [5] it was 55%; in [7] it was 50%.

For the molecule `CNC(=O)c1cc(Oc2ccc(NC(=O)c3nc(SC)n(CCN(C)C)c3-c3ccc(F)cc3)cc2)ccn1`, the inhibition turned out to be 70% in experiment [2] and 64% in experiment [1].

In the case of `CSc1nc(C(=O)Nc2ccc(Oc3cc4cnn(C)c4cc3Br)cc2)c(-c2ccc(F)cc2)o1`, the inhibition in experiment [6] and in experiment [4] was 25% in each case.

In the case of `CNC(=O)c1cc(Oc2ccc(NC(=O)c3nc(SC)[nH]c3-c3ccc(F)cc3)cc2)ccn1`, the inhibition entry in the experiment with MDA-MB-231 and in the experiment with GILM3 was “Active” throughout. Moreover, the result in experiment [8], in experiment [9] and in experiment [10] was inactive. Further, the inhibition in [6] came out at 88%; in experiment [3], 92%; in experiment [1], 91%; in [7] it was 85%.

For the molecule `CNC(=O)c1cc(Oc2ccc(NC(=O)c3nc(S(C)(=O)=O)sc3-c3ccc(F)cc3)cc2)ccn1`, the inhibition in experiment [11] amounted to 54%; in [6] it was 53%; in experiment [3] it was 18%; in experiment [1] it was 83%; in [4] it was 15%; in [7], 21%. Further, the inhibition entry with MDA-MB-231 and with GILM3 was “Active” each time. The outcome in experiment [8], in experiment [9] and in [10] was inactive.

As to `CNC(=O)c1cc(Oc2ccc(NC(=O)c3nc(SC)oc3-c3ccc(F)cc3)cc2)ccn1`, the inhibition turned out to be 54% in experiment [11], 55% in experiment [2], 65% in [4] and 39% in experiment [5]. In addition, the inhibition result in the experiment on MDA-MB-231 and in the experiment with GILM3 was “Active” each time. The outcome in experiment [8], in [9] and in [10] was inactive.

Turning to `CNC(=O)c1cc(Oc2ccc(NC(=O)c3n[nH]nc3-c3ccc(F)cc3)cc2)ccn1`, the figures for the inhibition in [11] and in experiment [2] were 51% and 60%, respectively.
